Patent publication US10703748B2, “Diazanaphthalen-3-yl carboxamides and preparation and use thereof” (Samumed, LLC, priority 2017, dated 2020)
Like-named read-outs stand apart in the source and are kept apart here.

What was measured:
[1] = biological target: DYRK1A kinase (Homo sapiens, UniProt Q13627); test: DYRK1A kinase activity (Ser/Thr 18 peptide Z-lyte FRET assay); type: biochemical; conditions: recombinant DYRK1A, 30 μM ATP, one hour at room temperature;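 also: kinase activity read as coumarin/fluorescein emission ratio after development step, with unphosphorylated and phosphorylated peptide forms setting 0% and 100% controls, values from dose-response curves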
[2] = biological target: GSK3β kinase (Homo sapiens, UniProt P49841); test: GSK3β kinase activity (Ser/Thr 09 peptide Z-lyte FRET assay); type: biochemical
Protocol: Each compound is dissolved in DMSO as a 10 mM stock and used to prepare compound source plates. Serial dilution (1:3, 11-point dose-response curves from 10 μM to 0.0003 μM) and compound transfer was performed using the ECHO 550 (Labcyte, Sunnyvale, Calif.) into 1536-well black-walled round bottom plates (Corning).
This is a non-radioactive assay using fluorescence resonance energy transfer (FRET) between coumarin and fluorescein to detect kinase activity which is represented as ratio of coumarin emission/fluorescein emission.
The mixture is allowed to incubate with the representative compounds for one hour at room temperature. All reactions were performed in duplicate. Unphosphorylated (“0% Control”) and phosphorylated (“100% control”) forms of Ser/Thr 18 serve as control reactions.
After incubation, diluted Development Buffer is added to the reaction and allowed to further incubate for one hour at room temperature.
Dose-response curves are generated and inhibitory concentration (IC50) values are calculated using non-linear regression curve fit in the Dotmatics' Studies Software (Bishops Stortford, UK).

[3] = test system: secreted cytokines TNFα, IL-6 and KC-GRO; test: Secreted cytokines in Lipopolysaccharide-stimulated BV-2 cells (Table 9 does not say which cytokine); type: cell-based, mouse; conditions: Mus musculus, BV-2, 5 h
[4] = test system: SW480 colon carcinoma cells; test: Cell viability assay (CellTiter-Glo); conditions: Homo sapiens; for EC50: SW480, 96 h; for inhibition at 10 µM: SW480, read-out: percent inhibition at 10 μM
[5] = test system: Wnt-responsive Sp5-Luc reporter in SW480 colon carcinoma cells; test: Screening assay for Wnt activity (Sp5-Luc reporter gene assay); conditions: Homo sapiens; for EC50: SW480; for inhibition at 10 µM: SW480, read-out: percent inhibition at 10 μM
[6] = test system: IL-6; test: IL-6 inhibition in LPS-stimulated human peripheral blood mononuclear cells (HTRF); conditions: Homo sapiens, PBMC; for EC50: 22 h; for inhibition at 10 µM: read-out: percentage in parentheses after EC50 >10
[7] = test system: α-smooth muscle actin (aSMA) positive LL29 cells; test: Inhibition of the fibrotic process: αSMA staining in TGF-β1 treated LL29 fibroblasts from IPF patients; conditions: Homo sapiens, Fibroblast; for EC50: 96 h; for inhibition at 10 µM: read-out: percentage in parentheses after EC50 >10
Protocol: Each compound was dissolved in DMSO as a 10 mM stock and used to prepare compound source plates. […] LL29 cells were plated at 1,500 cells/well in 70 μL/well F12 medium supplemented with 1% Fetal Bovine Serum. […] Wells treated with TGF-β1 and containing DMSO were used as positive control, and cells with only DMSO were negative control. Cells were incubated at 37° C. and 5% CO2 for 4 days. Following incubation for 4 days, SYTOX green nucleic acid stain (Life Technologies [Thermo Fisher Scientific]) was added to the wells at a final concentration of 1 μM and incubated at room temperature for 30 min. Cells were then fixed using 4% formaldehyde (Electron Microscopy Sciences), washed 3 times with PBS followed by blocking and permeabilization using 3% Bovine Serum Albumin (BSA; Sigma) and 0.3% Triton X-100 (Sigma) in PBS.

[8] = recombinant kinase, 46 μM ATP, one hour at room temperature, read-out: EC50

GSK3β kinase, sequence (P49841 whole entry): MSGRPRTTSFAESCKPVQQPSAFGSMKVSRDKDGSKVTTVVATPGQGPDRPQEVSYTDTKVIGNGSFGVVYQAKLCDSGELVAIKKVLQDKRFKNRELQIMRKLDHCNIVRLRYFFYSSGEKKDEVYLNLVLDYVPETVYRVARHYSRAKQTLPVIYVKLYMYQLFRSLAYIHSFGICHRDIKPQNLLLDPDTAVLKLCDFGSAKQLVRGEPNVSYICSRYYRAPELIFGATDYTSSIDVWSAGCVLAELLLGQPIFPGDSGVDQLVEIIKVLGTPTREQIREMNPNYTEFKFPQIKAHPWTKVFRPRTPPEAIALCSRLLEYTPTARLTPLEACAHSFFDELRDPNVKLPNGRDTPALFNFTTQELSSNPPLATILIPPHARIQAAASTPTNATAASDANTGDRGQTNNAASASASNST

Row | EC50 [1] [nM] | EC50 [2, 8] [nM] | EC50 ([3]; read-out: EC50) [nM] | EC50 [4] [nM] | EC50 [5] [nM] | EC50 [6] [nM] | EC50 [2] [nM] | EC50 [3] [nM] | Compound | inhibition at 10 µM [6] [%] | EC50 [7] [nM] | inhibition at 10 µM [7] [%] | inhibition at 10 µM [4] [%] | inhibition at 10 µM [5] [%]
1 | 13 | 832 | 6800 | 3140 | 1650 | > 10000 | – | – | CN1CCCN(c2cc(C(=O)Nc3ncc4ccc(-c5cn(C)nn5)cc4n3)ccn2)CC1 [Compound 1285, 2-(4-Methyl-1,4-diazepan-1-yl)-N-(7-(1-methyl-1H-1,2,3-triazol-4-yl)quinazolin-2-yl)isonicotinamide] | 2.1 | > 10000 | 5.5 | – | –
2 | 57 | 38 | ≥ 10000 | > 10000 | > 10000 | > 10000 | – | – | Cn1cnnc1-c1ccc2cnc(NC(=O)C3CCN(CCC(F)(F)F)CC3)nc2c1 [Compound 1297, N-(7-(4-Methyl-4H-1,2,4-triazol-3-yl)quinazolin-2-yl)-1-(3,3,3-trifluoropropyl)piperidine-4-carboxamide] | 4.3 | > 10000 | 42.1 | 35.1 | 39.2
3 | 11 | 1350 | 812 | 4480 | 2180 | > 10000 | – | – | Cc1ncc(C(=O)Nc2ncc3ccc(-c4cnc(C)n4C)cc3n2)s1 [Compound 1353, N-(7-(1,2-Dimethyl-1H-imidazol-5-yl)quinazolin-2-yl)-2-methylthiazole-5-carboxamide] | 4.1 | > 10000 | 42 | – | –
4 | 5 | 2780 | 1100 | 8600 | 2570 | 8060 | – | – | Cn1cncc1-c1ccc2cnc(NC(=O)c3cccc(CN4CCCC4)c3)nc2c1 [Compound 1356, N-(7-(1-Methyl-1H-imidazol-5-yl)quinazolin-2-yl)-3-(pyrrolidin-1-ylmethyl)benzamide] | – | 3600 | – | – | –
5 | 2 | 453 | 6800 | > 10000 | > 10000 | > 10000 | – | – | Cn1cncc1-c1ccc2cnc(NC(=O)c3ccc4c(c3)CNC4)nc2c1 [Compound 1383, N-(7-(1-Methyl-1H-imidazol-5-yl)quinazolin-2-yl)isoindoline-5-carboxamide] | 3.1 | 3290 | – | 26.1 | 15.9
6 | 56 | 952 | 605 | > 10000 | 617 | > 10000 | – | – | Cc1ncc(-c2ccc3cnc(NC(=O)[C@H]4CC[C@H](CO)CC4)nc3c2)o1 [Compound 1447, trans-4-(Hydroxymethyl)-N-(7-(2-methyloxazol-5-yl)quinazolin-2-yl)cyclohexane-1-carboxamide] | 0 | > 10000 | 35.5 | 8.5 | –
7 | 30 | > 10000 | 334 | > 10000 | > 10000 | > 10000 | – | – | CN1CCC(Oc2cccc(C(=O)Nc3ncc4ccc(-c5cnco5)cc4n3)c2)CC1 [Compound 1497, 3-((1-Methylpiperidin-4-yl)oxy)-N-(7-(oxazol-5-yl)quinazolin-2-yl)benzamide] | 4.8 | 2430 | – | 23.7 | 41.7
8 | 11 | 772 | 69 | > 10000 | 2280 | > 10000 | – | – | O=C(Nc1ncc2ccc(-c3cncs3)cc2n1)[C@H]1CC[C@H](CN2CC(F)C2)CC1 [Compound 1519, trans-4-((3-fluoroazetidin-1-yl)methyl)-N-(7-(thiazol-5-yl)quinazolin-2-yl)cyclohexane-1-carboxamide] | 2.9 | 2400 | – | 17.1 | –
9 | 47 | 1380 | 1800 | > 10000 | > 10000 | > 10000 | – | – | O=C(Nc1ncc2ccc(-c3cncs3)cc2n1)C1CCN(C2COC2)CC1 [Compound 1523, 1-(Oxetan-3-yl)-N-(7-(thiazol-5-yl)quinazolin-2-yl)piperidine-4-carboxamide] | 6.2 | > 10000 | 24.9 | 15.1 | 13.7
10 | 5 | 9990 | 221 | 331 | 184 | 2880 | – | – | CN1CCN(c2cc(C(=O)Nc3ncc4ccc(-c5cnc(N)s5)cc4n3)ccn2)CC1 [Compound 1589, N-(7-(2-aminothiazol-5-yl)quinazolin-2-yl)-2-(4-methylpiperazin-1-yl)isonicotinamide] | – | 911 | – | – | –
11 | 2 | 8040 | 5500 | > 10000 | 3380 | > 10000 | – | – | Nc1cncc(-c2ccc3cnc(NC(=O)c4ccc(OC5CCNCC5)cc4)nc3c2)c1 [Compound 1710, N-(7-(5-Aminopyridin-3-yl)quinazolin-2-yl)-4-(piperidin-4-yloxy)benzamide] | 7.2 | > 10000 | 10.4 | 39.6 | –
12 | 27 | – | – | 1560 | 1140 | > 10000 | > 10000 | 1000 | CN1CCN(c2cc(C(=O)Nc3ncc4ccc(-c5ccc(N)nc5)cc4n3)ccn2)CC1 [Compound 1713, N-(7-(6-Aminopyridin-3-yl)quinazolin-2-yl)-2-(4-methylpiperazin-1-yl)isonicotinamide] | 5.7 | 5160 | – | – | –
13 | 1 | 995 | 5 | 95 | 88 | > 10000 | – | – | CN1CC=C(c2cc(C(=O)Nc3ncc4ccc(-c5cncc(NC(C)(C)C)n5)cc4n3)ccn2)CC1 [Compound 1773, N-(7-(6-(tert-Butylamino)pyrazin-2-yl)quinazolin-2-yl)-1′-methyl-1′,2′,3′,6′-tetrahydro-[2,4′-bipyridine]-4-carboxamide] | 40.7 | 163 | – | – | –
14 | 7 | 536 | 6800 | > 10000 | > 10000 | > 10000 | – | – | O=C(Nc1ncc2ccc(-c3cncc(NC4CCNCC4)n3)cc2n1)C1CCOCC1 [Compound 1783, N-(7-(6-(Piperidin-4-ylamino)pyrazin-2-yl)quinazolin-2-yl)tetrahydro-2H-pyran-4-carboxamide] | 6.1 | > 10000 | 53.7 | 38.8 | 14.4
15 | 7 | > 10000 | 4400 | 1370 | 1400 | > 10000 | – | – | CN1CCC(n2cc(C(=O)Nc3ncc4ccc(-c5cncc6[nH]ccc56)cc4n3)cn2)CC1 [Compound 1802, N-(7-(1H-Pyrrolo[2,3-c]pyridin-4-yl)quinazolin-2-yl)-1-(1-methylpiperidin-4-yl)-1H-pyrazole-4-carboxamide] | 47.2 | > 10000 | 47.6 | – | –
16 | 2 | > 10000 | 952 | 1000 | 396 | > 10000 | – | – | CC(C)n1cc(C(=O)Nc2ncc3ccc(-c4cncc(NC5CCN(C)CC5)n4)cc3n2)cn1 [Compound 1813, 1-Isopropyl-N-(7-(6-((1-methylpiperidin-4-yl)amino)pyrazin-2-yl)quinazolin-2-yl)-1H-pyrazole-4-carboxamide] | 42 | 5820 | – | – | –
17 | 34 | 2520 | 896 | > 10000 | > 10000 | > 10000 | – | – | C[C@H]1CCCN1CC(=O)Nc1cc2cc(-c3cnn(C)c3)cnc2cn1 [Compound 2767, (S)—N-(3-(1-Methyl-1H-pyrazol-4-yl)-1,7-naphthyridin-6-yl)-2-(2-methylpyrrolidin-1-yl)acetamide] | 0 | > 10000 | 13.8 | 37 | 20.7
18 | 56 | > 10000 | 1000 | > 10000 | 836 | > 10000 | – | – | CN(CC(=O)Nc1cc2cc(-c3cnn(C)c3)cnc2cn1)C1CCC1 [Compound 2776, 2-(Cyclobutyl(methyl)amino)-N-(3-(1-methyl-1H-pyrazol-4-yl)-1,7-naphthyridin-6-yl)acetamide] | 10.4 | > 10000 | 39 | 8.1 | –
